Columns and labels:
Type in all cases: cell-based
OV-2774 = test: Cytotoxicity assay (WST1); settings: Ovarian, OV-2774, WST1
Description: (§1) 5,000 cells/well were seeded in 96-well plates with appropriate culture media. After cells treatment, WST-1 reagent (Sigma-Aldrich) was added to each well according to the manufacturer's instructions. These experiments were performed in triplicates and were repeated several times.

A1235 = test: Cytotoxicity assay (WST1); settings: Glioblastoma
Description: as §1

Cal62 = test: Cytotoxicity assay (WST1); settings: Thyroid
Description: as §1

H-1937 = test: Cytotoxicity assay (WST1); settings: Lung, H-1937, WST1
Description: as §1

MG-64 = test: Cytotoxicity assay (WST1); settings: Osteosarcoma, MG-64, WST1
Description: as §1

CSC (MDA-MB-231) = test: WST1 cytotoxicity on pre-formed tumorspheres (cancer stem cells); settings: cisplatin 50 µM for 24 h, MDA-MB-231 tumorspheres
Description: (§2) It is well known that cancer stem cells are the most resistant type of cells, which are responsible for recurrence and metastasis (Garcia-Mayea et al., 2020). Therefore, we decided to investigate the effect of eugenoplatin on the self-renewal ability and sternness capacity of cancer cells. To this end, cancer cells were first either sham-treated (DMSO) or challenged with eugenoplatin (3 µM) for 24 h, and then were incubated in 96 well ultra-low attachment plates in the presence of stem cells culture medium. After 10 days, the formed spheroids with a dimeter ≥ 100 µm were counted (Fig. 6A).
as §1
(§3) Cells were seeded in 96 well ultra-low attachment plate at a density of 1000 viable cells/well. Cells were cultured in 171 medium supplemented with 1% ABM, 2% B-27, 20 ng/mL EGF, 500 ng/ml HC, 4% FBS and 5 µg/ml insulin. Cells were incubated for 10 days at 37°C under 5% CO2. Mammospheres with a diameter of ≥100 µm were counted using OPTIKA light microscope.

CSC (MG-64) = test: as above; settings: cisplatin 50 µM for 24 h, MG-64 tumorspheres
Description: as §2, §1, §3

[1] = test system: human fibroblast cells (HFSN1); test: γ-H2AX immunofluorescence (DNA damage); settings: cisplatin 50 µM for 24 h
Description: Since cisplatin is a DNA damaging chemotherapeutic drug, we investigated whether eugenoplatin can also promote DNA damage in cells. […] To confirm this, we assessed the level of the phosphorylated form of p53 (P.p53) in eugenoplatin-treated cells. […] This was accompanied by a late increase in the level of the p53 target p21 (Fig. 7B).
HFSN1 cells were fixed in formaldehyde (4%) for 19 minutes and blocked with Goat serum (5%), triton X (0.3%) and 1% sodium azide (5%) for 1 hour. The slides were then stained overnight at 4 °C with γ-H2AX antibody (pSer139) (Novusibio) that diluted in BSA (1%), triton X (0.3%) and 1 % sodium azide (5%), and subsequently incubated with alexa flour 594-conjugated goat anti-rabbit IgG and DAPI for 1 hour. Images were acquired using fluorescence microscope (Zeiss).

HCT-116 = test: Cytotoxicity assay (WST1); settings: Colon, HCT-116, WST1
Description: as §1

N.N.O=C([O-])C1(C(=O)[O-])CCC1.[Pt+2] [Carboplatin]
IC50 (OV-2774): 53.3 ± 0.67 µM

N.N.[Cl][Pt][Cl] [Cisplatin, (SP-4-2)-diamminedichloridoplatinum(II)]
IC50 (A1235): 55.8 ± 18.2 µM | IC50 (Cal62): 25.7 ± 2.19 µM | IC50 (H-1937): 67.8 ± 7.75 µM | IC50 (MG-64): 26 ± 4 µM | proportion of survival CSC (CSC (MDA-MB-231)): not affected | proportion of survival CSC (CSC (MG-64)): not affected | γ-H2AX immunostaining [1]: strong nuclear staining

O=C(O)C(=O)O.[NH-][C@@H]1CCCC[C@H]1[NH-].[Pt+2] [Oxaliplatin]
IC50 (HCT-116): 3.17 ± 0.52 µM

From EP4311830A1 (King Faisal Specialist Hospital & Research Centre, priority 2022, dated 2024)
